Where two headings read alike, the source gives them in different places.
How the values were obtained:
HBV [1] = assay: Suppression of secreted HBV DNA synthesis; assay type: cell-based; details: Hepatitis B virus
Method: Antiviral activity was measured using an inducible HBV expression system, AD38 cells. (Ladner, S. K. et al., Antimicrob Agents Chemother 41, 1715-20 (1997)). Initial experiments tested the activity of 10 μM HAP (percentage viral assembly at 24 hour). For active molecules, effective concentrations were determined for suppression of HBV production by 50% and by 90%; this value is reported in μM. Compound toxicity was tested in the parent cell line, HepG2. This is reported as the concentration required to suppress cell growth by 50%, CC50 (in μM) and as the ratio of CC50/EC50, also known as the therapeutic index. As a control and for comparison, the results for the nucleoside analog 3TC (lamivudine) also described.
(§1) CpAMs were used to treat a transient transfection of huh7 cells. Cytoplasmic RNA was harvested and quantified by RT-per. The transfection system is described by Lentz and Loeb (Lentz and Loeb (2010) J Virol Methods 169, 52-60.) Fresh medium with drug was added to cultured cells daily for four days at concentrations from 0.001 to 10 micromolar. The two points at 0.00001 are both controls where there was no drug and no DMSO. The controls and the DMSO-treated cells had similar amounts of RNA. […] (See FIG. 7)

HBV RNA = assay: Transient transfection of Huh-7 cells, cytoplasmic RNA quantified by RT-PCR; assay type: cell-based, hepatitis B virus; details: for EC50: Hepatitis B virus
Method: FIG. 7 Several compounds were used to treat a transient transfection of Huh-7 cells (Huh-7 is a well differentiated hepatocyte derived cellular carcinoma cell line). Cytoplasmic RNA was harvested and quantified by RT-per. Treatment/dynamic range/ED50: DMSO/1.6/NA; AT130/25/0.5 μM; HAP13/20/5 μM; HAP12/36/0.5 μM.
as §1

HBV [2] = assay: HepG2 cells transfected with linear full-length HBV DNA: capsid-associated HBV-DNA, cccDNA and pgRNA by real-time PCR; assay type: cell-based, hepatitis B virus genotype A
Description: a) In HepG2 cells transfected with monomeric linear full length HBV pgRNA and HBV replication are dependent on cccDNA formation, chromatinization and transcription. b) Cytoplasmic HBV core particles were isolated from untreated and HAP12-treated cells at the indicated time points after transfection. Results are expressed as number of HBV DNA copies per transfected cells. c) cccDNA accumulation in untreated and HAP12-treated HepG2 cells transfected with wild type HBV genomes. qPCR analysis was performed using selective cccDNA primers to amplify cccDNA and beta-globin primers to normalize the DNA samples. Results are expressed as number of cccDNA copies per transfected cells. d) mRNAs were prepared from untreated and […] HepG2 cells transfected with wild type HBV genomes and harvested at the indicated times post-transfection. Specific primers were utilized to quantify the HBV pregenomic RNA and GAPDH amplification was used to normalize for equal loading of each RNA sample. All histograms show mean values from two independent experiments; bars indicate standard deviations (SD)
(§2) The activity of the hetero-aryl-dihydropyrimidine HAP12 compound on capsid-associated HBV-DNA (TaqMan real-time PCR), cccDNA (TaqMan real-time PCR) (Werle-Lapostolle, Gastroenterology 2004) and pgRNA levels (quantitative realtime PCR) (Belloni, PNAS 2009) were assessed in three in vitro HBV replication models:
a) HepG2 cells transfected with a linear full-length genotype A HBV DNA (Gunther, J Virol 1995; Pollicino, Gastroenterology 2006);

HBV [3] = assay: AD38 stable cell line (tetracycline removal): cytoplasmic core particle HBV DNA and pgRNA; assay type: cell-based, hepatitis B virus genotype D; details: AD38 cells, treatment started at day 0 or day 6
Description: FIG. 5 HAP12 targets cccDNA transcription in AD38 cells. […] The cccDNA pool is built up from the recycling of mature core particles to the nucleus after HBV replication is started from the pgRNA initially transcribed from the “tet-regulated” HBV integrated DNA (b). HAP12 treatment is started at day 0 (left panels) or day 6 (right panels). c) Cytoplasmic HBV core particles, and total mRNAs (d) were isolated from untreated and HAP12-treated cells at the indicated time points. HBV DNA, cccDNA and pgRNA results are expressed as in FIG. 2. All histograms show mean values from two independent experiments; bars indicate standard deviations (SD).
as §2
c) the AD38 cells are a stable HepG2-derived HBV genotype D clone that, upon tetracycline removal, expresses pgRNA,
assembles subviral particles in the cytoplasm, accumulates cccDNA in the nucleus and secretes HBV virions in the cell supernatant (Ladner, J Virol 1997).

[4] = system: HBc binding to the cccDNA; assay: cccDNA ChIP assay in HepG2 H1.3 cells; assay type: cell-based, hepatitis B virus; details: 10 days treatment
Description: FIG. 6 HAP12 interferes with HBc binding to the cccDNA. It is herein described that using a cccDNA ChIP assay (a), that HBc is recruited onto the cccDNA in HBV replicating HepG2 cells (b) and in the HepG2 H1.3 stable cell line. […] It is believe that this finding is in agreement with the observed inhibition of cccDNA transcription and pgRNA production in HAP12 treated cells. HAP12 treatment is started at day 10 of HepG2 H1.3 cells “differentiation” (see legend to FIG. 3). Cross-linked chromatin was prepared from untreated and HAP12-treated cells at TO (before treatment, 10 gg “differentiation”) and at T10 (10 days of exposure to HAP12, 20 gg from beginning of […], #H1905-15). ChIPped chromatin was analyzed by qPCR with HBV cccDNA selective primers. Results are expressed as % of input. Histograms show mean values from two independent experiments; bars indicate standard deviations (SD).
Recruitment of HBc and cccDNA bound histones modifications were assessed using the cccDNA ChIP assay (Pollicino, 2006)

HBV [5] = assay: HepG2 H1.3 HBV stable clone: capsid-associated HBV-DNA, cccDNA and pgRNA by real-time PCR; assay type: cell-based, hepatitis B virus genotype D
Description: HAP12 treatment is started at day 10 of “differentiation” when HBV replication is high and the cccDNA pool is expanded. pgRNA is transcribed from both cccDNA and integrated HBV. b) Cytoplasmic HBV core particles, nuclear cccDNA (c) and total mRNAs (d) were isolated from untreated and HAP12-treated cells at the indicated time points. HBV-DNA, cccDNA and pgRNA results are expressed as in FIG. 2. Histograms show mean values from two independent experiments; bars indicate standard deviations (SD).
By treating the HepG2 H1.3 cells with HAP12 before the establishment of the cccDNA pool it was shown that cccDNA formation and accumulation […] by HAP12. Under these conditions the effect on HBV replication is maximal. a) HAP12 treatment is started at day 0 of “differentiation” when HBV replication and cccDNA levels are very low. b) Cytoplasmic HBV core particles, nuclear cccDNA (c) and total mRNAs (d) were isolated from untreated and HAP12-treated cells at the indicated time points. HBV-DNA, cccDNA and pgRNA results are expressed as in FIG. 2. Histograms show mean values from two independent experiments; bars indicate standard deviations (SD).
as §2
b) the HepG2 H1.3 genotype D HBV stable clone that accumulates cccDNA when cultured in “conditioned” medium at high confluence (Protzer, Gastroenterology 2007; Lucifora, J Hepatol 2011);

[6] = Huh-7, 96 h, huh7 transient transfection, drug daily for four days, read-out: EC50 for RNA suppression
[7] = Huh-7 transient transfection, read-out: ED50 (cytoplasmic RNA)
[8] = HepG2 H1.3, treatment started at day 0, before establishment of the cccDNA pool
[9] = HepG2 H1.3, treatment started at day 10 of differentiation

COc1ccccc1/C(Br)=C(\NC(=O)c1ccc([N+](=O)[O-])cc1)C(=O)N1CCCCC1 [AT130, (E)-N-(1-Bromo-1-(2-methoxyphenyl)-3-oxo-3-(piperidin-1-yl)prop-1-en-2-yl)-4-nitrobenzamide]
EC50 (HBV [1]): 2400 nM
EC50 (HBV RNA; [6]): 500 nM
EC50 (HBV RNA; [7]): 500 nM
dynamic range (cytoplasmic RNA) (HBV RNA; Huh-7 transient transfection): 25

COC(=O)C1=C(CN2CCOCC2)NC(c2ccccn2)=NC1c1ccc(F)cc1Cl (centres unmarked) [HAP12]
EC50 (HBV [1]): 12 nM
decrease in cccDNA levels (HBV [2]): ~30%
suppression of HBV replication (HBV [2]; 72 and 96 hrs): complete suppression
peak reduction of pgRNA transcription (HBV [2]; at 96 hours): > 50%
EC50 (HBV RNA; [6]): 500 nM
EC50 (HBV RNA; [7]): 500 nM
dynamic range (cytoplasmic RNA) (HBV RNA; Huh-7 transient transfection): 36
effect on HBV replication (HBV [3]): inhibitory effect
effect on pgRNA transcription (HBV [3]): inhibitory effect
cccDNA HBc occupancy [4]: strongly inhibited
cccDNA-bound H3 histone acetylation [4]: sharp decrease
cccDNA formation/accumulation (HBV [5]; [8]): does not prevent
effect on HBV replication (HBV [5]; [8]): maximal
effect on HBV replication (HBV [5]; [9]): inhibitory effect
effect on pgRNA transcription (HBV [5]; [9]): inhibitory effect

COC(=O)C1=C(CN2CCNCC2)NC(c2ccccn2)=NC1c1ccc(F)cc1Cl (centres unmarked) [HAP13]
EC50 (HBV [1]): 6100 nM
EC50 (HBV RNA; [6]): 5000 nM
EC50 (HBV RNA; [7]): 5000 nM
dynamic range (cytoplasmic RNA) (HBV RNA; Huh-7 transient transfection): 20

— US20150292045A1, “ALTERNATIVE USES FOR HBV ASSEMBLY EFFECTORS” (INDIANA UNIVERSITY RESEARCH AND TECHNOLOGY CORPORATION, priority 2012, published 2015)
